Source: patent US7799809B2, “Carboxamide compounds and their use as calpain inhibitors” (Abbott GmbH & Co. KG, priority 2006, dated 2010)

Each compound was assayed against T1, cathepsin L (Homo sapiens, UniProt P07711) (assay: Cathepsin L enzyme inhibition in vitro (kinetic fluorescence assay)). Conditions: cathepsin L isolated from human liver vs calpain I.
T1 construct: cathepsin L—isolated from human liver (Calbiochem #219402); purchased Calbiochem 219402; host or cells: human liver (tissue-derived)
T1 sequence (P07711 114-333): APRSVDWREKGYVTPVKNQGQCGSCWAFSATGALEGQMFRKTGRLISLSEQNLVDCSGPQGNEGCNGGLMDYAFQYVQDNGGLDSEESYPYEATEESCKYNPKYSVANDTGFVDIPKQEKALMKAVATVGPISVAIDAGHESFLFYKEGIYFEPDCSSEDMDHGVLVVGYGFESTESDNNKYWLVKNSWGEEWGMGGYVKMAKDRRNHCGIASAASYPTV
Assay type: biochemical
Method: (§1) The following solutions and buffers were employed: • HBS (for 40 ml): 800 μl M HEPES; 2.16 ml 100 mM KCl; 4.8 ml 1M NaCl; 3.59 ml 5% glucose; 60 μl μM MgSO4; 400 μl 100 mM Na pyruvate, 28.19 ml water; pH 7.2-7.5. • lysis buffer (for 20 ml): 400 μl M Tris pH 8.2; 2.74 ml 1M NaCl; 520 μl 0.5M EDTA; 2 ml 10% triton X-100; 0.8 ml (=1:25) CompletePlus (1 tablet/2 ml H2O); 200 μl 100 mM Pefabloc; 13.34 ml water, pH 8.2. • TBST (10×) (for 1 l): 100 mM Tris (12.1 g); 1.5M NaCl (87 g); 1% Tween 20 (10 g), adjusted to pH 8. I Enzyme Inhibition In Vitro: • Testing for blockade of the corresponding enzymic activities was carried out by means of kinetic fluorescence assays (excitation 390 nm, emission 460 nm). • Apparent Ki values were calculated from the experimentally determined IC50 values by the Cheng-Prussoff relation assuming a reversible competitive enzyme inhibition. The Km values of the substrates used under the assay conditions indicated above were: 90 μM (Z-Phe-Arg-AMC, cathepsin B), 10 μM (Z-Gly-Pro-Arg-AMC, cathepsin K), 2 μM (Z-Phe-Arg-AMC, cathepsin L), and 30 μM (Z-Val-Val-Arg-AMC, cathepsin S). • The indicated Ki values are averages of the inhibition constants calculated on the basis of 2 to 4 independent dose-effect plots.
(§2) The following assays were used: • 1. Calpain I: • 20 nM calpain-I—isolated from human erythrocytes (Calbiochem #208713), 100 μM Suc-Leu-Tyr-AMC (Bachem #1-1355) as substrate in buffer with 62 mM imidazole, 0.3 mM CaCl2, 0.10% CHAPS, 0.05% BSA, 1 mM DTT at pH 7.3 and room temperature. • 2. Cathepsin B: • 0.25 nM cathepsin B—isolated from human liver (Calbiochem #219362), 100 μM Z-Phe-Arg-AMC (Bachem #I-1160) as substrate 50 mM MES, 2 mM EDTA, 0.05% Brij 35, 2.5 mM L-cysteine, pH 6.0, room temperature. • 3. Cathepsin K: • 3 nM cathepsin K—activated from recombinant human procathepsin K from E. coli (Calbiochem #342001), 10 μM Z-Gly-Pro-Arg-AMC (Biomol #P-142) as substrate in 50 mM MES, 2 mM EDTA, 0.05% Brij 35, 2.5 mM L-cysteine, pH 6.0, room temperature. • 4. Cathepsin L: • 1 nM cathepsin L—isolated from human liver (Calbiochem #219402), 2 μM Z-Phe-Arg-AMC (Bachem #1-1160) as substrate in 50 mM MES, 2 mM EDTA, 0.05% Brij 35, 2.5 mM L-cysteine, pH 6.0, room temperature. • 5. Cathepsin S: • 0.5 nM recombinant human cathepsin S from E. coli (Calbiochem #219343), 20 μM Z-Val-Val-Arg-AMC (Bachem #1-1540) as substrate in 50 mM MES, 2 mM EDTA, 0.05% Brij 35, 2.5 mM L-cysteine, pH 6.0, room temperature. • The results of the in vitro determination are indicated in Table 1. The following abbreviations are used in Table 1: • The “Calpain activity” column, ++ stands for a calpain Ki (Ki(calpain)) of ≦40 nM and + means: 40 nM<Ki(Calpain)≦100 nM. • The “Sel. cat. B” column indicates the Ki(cathepsin B)/Ki(calpain) ratio. In this connection, ++ means a Ki(cathepsin B)/Ki(calpain) ratio of ≧30 and + means 10≦Ki(cathepsin B)/Ki(calpain)<30. • The “Sel. cat. K” column indicates the Ki(cathepsin K)/Ki(calpain) ratio. In this connection, ++ means a Ki(cathepsin K)/Ki(calpain) ratio of ≧30 and + means 10≦Ki(cathepsin K)/Ki(calpain)<30. • The “Sel. cat. L” column indicates the Ki(cathepsin L)/Ki(calpain) ratio. In this connection, ++ means a Ki(cathepsin L)/Ki(calpain) ratio of ≧50 and + means 30≦Ki(cathepsin L)/Ki(calpain)<50. • The “Sel. cat. S” column indicates the Ki(cathepsin S)/Ki(calpain) ratio. In this connection, ++ means a Ki(cathepsin S)/Ki(calpain) ratio of ≧100 and + means 50≦Ki(cathepsin S)/Ki(calpain)<100.
`CCCCC(NC(=O)c1cccnc1-n1cnc(-c2ccccc2)c1)C(=O)C(N)=O` (stereo not shown) [Example 2, N-{1-[Amino(oxo)acetyl]pentyl}-2-(4-phenyl-1H-imidazol-1-yl)nicotinamide] was tested, and the “Sel cat. L: Ki(cathepsin L)/Ki(calpain) ratio” value was “++ (++ means a Ki(cathepsin L)/Ki(calpain) ratio of ≧50)”.
In the case of `CCCCC(NC(=O)c1cc(Cl)cnc1-n1cnc(-c2ccccc2)c1)C(=O)C(N)=O.Cl` (stereo not shown) [Example 24, N-{1-[Amino(oxo)acetyl]pentyl}-5-chloro-2-(4-phenyl-1H-imidazol-1-yl)nicotinamide hydrochloride], the “Sel cat. L: Ki(cathepsin L)/Ki(calpain) ratio” value is reported as “+ (+ means 30≦Ki(cathepsin L)/Ki(calpain)<50)”.
With `COCc1cn(-c2ncccc2C(=O)NC(Cc2ccccc2)C(=O)C(N)=O)nc1-c1ccc(F)cc1` (stereo not shown) [Example 170, N-[3-Amino-2,3-dioxo-1-(phenylmethyl)propyl]-2-{3-(4-fluorophenyl)-4-[(methyloxy)methyl]-1H-pyrazol-1-yl}pyridine-3-carboxamide] the “Sel cat. L: Ki(cathepsin L)/Ki(calpain) ratio” value was “+ (+ means 30≦Ki(cathepsin L)/Ki(calpain)<50)”.

Each compound was assayed against T2, cathepsin S (Homo sapiens, UniProt P25774) (assay: Cathepsin S enzyme inhibition in vitro (kinetic fluorescence assay)). Conditions: recombinant human cathepsin S vs calpain I.
T2 construct: purchased Calbiochem 219343; host or cells: E. coli
T2 sequence (P25774 115-331): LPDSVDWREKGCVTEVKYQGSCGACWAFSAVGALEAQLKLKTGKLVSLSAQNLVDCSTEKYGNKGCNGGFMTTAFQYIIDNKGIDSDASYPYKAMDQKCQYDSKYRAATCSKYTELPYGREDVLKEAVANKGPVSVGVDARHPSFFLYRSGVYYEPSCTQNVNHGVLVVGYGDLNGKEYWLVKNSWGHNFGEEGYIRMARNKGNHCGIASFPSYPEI
Assay type: biochemical
Method: as §1, §2
In the case of `NC(=O)C(=O)C(Cc1ccccc1)NC(=O)c1cccnc1-n1cc(CN2CCCC2)c(-c2cccc(C(F)(F)F)c2)n1` (stereo not shown) [Example 178, N-[3-Amino-2,3-dioxo-1-(phenylmethyl)propyl]-2-{4-(pyrrolidin-1-ylmethyl)-3-[3-(trifluoromethyl)phenyl]-1H-pyrazol-1-yl}pyridine-3-carboxamide], the “Sel cat. S: Ki(cathepsin S)/Ki(calpain) ratio” value is reported as “++ (++ means a Ki(cathepsin S)/Ki(calpain) ratio of ≧100)”.
With `CCCCC(NC(=O)c1cccnc1-n1ccc(-c2ccc(N(CC)CC)cc2)n1)C(=O)C(N)=O` (stereo not shown) [Example 47, N-{1-[Amino(oxo)acetyl]pentyl}-2-{3-[4-(diethylamino)phenyl]-1H-pyrazol-1-yl}nicotinamide] the “Sel cat. S: Ki(cathepsin S)/Ki(calpain) ratio” value was “++ (++ means a Ki(cathepsin S)/Ki(calpain) ratio of ≧100)”.
With `CN(C)Cc1cn(-c2ncccc2C(=O)NC(Cc2ccccc2)C(=O)C(N)=O)nc1-c1cccc(C(F)(F)F)c1` (stereo not shown) [Example 176, N-[3-Amino-2,3-dioxo-1-(phenylmethyl)propyl]-2-{4-[(dimethylamino)methyl]-3-[3-(trifluoromethyl)phenyl]-1H-pyrazol-1-yl}pyridine-3-carboxamide] the “Sel cat. S: Ki(cathepsin S)/Ki(calpain) ratio” value was “++ (++ means a Ki(cathepsin S)/Ki(calpain) ratio of ≧100)”.
For `NC(=O)C(=O)C(Cc1ccccc1)NC(=O)c1cccnc1-n1cc(-c2ccccc2F)cn1` (stereo not shown) [Example 104, N-[3-Amino-2,3-dioxo-1-(phenylmethyl)propyl]-2-[4-(2-fluorophenyl)-1H-pyrazol-1-yl]pyridine-3-carboxamide], the “Sel cat. S: Ki(cathepsin S)/Ki(calpain) ratio” value was “+ (+ means 50≦Ki(cathepsin S)/Ki(calpain)<100)”.
`CCN(CC)c1ccc(-c2ccn(-c3ncccc3C(=O)NC(Cc3ccccc3)C(=O)C(N)=O)n2)cc1` (stereo not shown) [Example 42, N-(3-Amino-1-benzyl-2,3-dioxopropyl)-2-{3-[4-(diethylamino)phenyl]-1H-pyrazol-1-yl}nicotinamide] was tested, and the “Sel cat. S: Ki(cathepsin S)/Ki(calpain) ratio” value was “++ (++ means a Ki(cathepsin S)/Ki(calpain) ratio of ≧100)”.
With `CCCCC(NC(=O)c1cccnc1-n1ccc(-c2ccccc2)n1)C(=O)C(N)=O` (stereo not shown) [Example 6, N-{1-[Amino(oxo)acetyl]pentyl}-2-(3-phenyl-1H-pyrazol-1-yl)nicotinamide] the “Sel cat. S: Ki(cathepsin S)/Ki(calpain) ratio” value was “+ (+ means 50≦Ki(cathepsin S)/Ki(calpain)<100)”.
For `CCCCC(NC(=O)c1cccnc1-n1ccc(-c2ccc(CN3CCOCC3)cc2)n1)C(=O)C(N)=O` (stereo not shown) [Example 45, N-{1-[Amino(oxo)acetyl]pentyl}-2-{3-[4-(morpholin-4-ylmethyl)phenyl]-1H-pyrazol-1-yl}nicotinamide], the “Sel cat. S: Ki(cathepsin S)/Ki(calpain) ratio” value was “+ (+ means 50≦Ki(cathepsin S)/Ki(calpain)<100)”.
In the case of `NC(=O)C(=O)C(Cc1ccccc1)NC(=O)c1cccnc1-n1ccc(-c2ccncc2)n1` (stereo not shown) [Example 65, N-(3-Amino-1-benzyl-2,3-dioxopropyl)-2-(3-pyridin-4-yl-1H-pyrazol-1-yl)nicotinamide], the “Sel cat. S: Ki(cathepsin S)/Ki(calpain) ratio” value is reported as “++ (++ means a Ki(cathepsin S)/Ki(calpain) ratio of ≧100)”.
With `NC(=O)C(=O)C(Cc1ccccc1)NC(=O)c1cccnc1-n1ccc(-c2ccc(CN3CCOCC3)cc2)n1` (stereo not shown) [Example 46, N-(3-Amino-1-benzyl-2,3-dioxopropyl)-2-{3-[4-(morpholin-4-ylmethyl)phenyl]-1H-pyrazol-1-yl}nicotinamide] the “Sel cat. S: Ki(cathepsin S)/Ki(calpain) ratio” value was “++ (++ means a Ki(cathepsin S)/Ki(calpain) ratio of ≧100)”.
With `NC(=O)C(=O)C(Cc1ccccc1)NC(=O)c1cccnc1-n1cc(CCN2CCOCC2)c(-c2ccc(F)cc2)n1` (stereo not shown) [Example 165, N-[3-Amino-2,3-dioxo-1-(phenylmethyl)propyl]-2-[3-(4-fluorophenyl)-4-(2-morpholin-4-ylethyl)-1H-pyrazol-1-yl]pyridine-3-carboxamide] the “Sel cat. S: Ki(cathepsin S)/Ki(calpain) ratio” value was “++ (++ means a Ki(cathepsin S)/Ki(calpain) ratio of ≧100)”.
With `NC(=O)C(=O)C(Cc1ccccc1)NC(=O)c1cccnc1-n1ccc(-c2ccc(-n3ccnc3)cc2)n1` (stereo not shown) [Example 101, N-[3-Amino-2,3-dioxo-1-(phenylmethyl)propyl]-2-{3-[4-(1H-imidazol-1-yl)phenyl]-1H-pyrazol-1-yl}pyridine-3-carboxamide] the “Sel cat. S: Ki(cathepsin S)/Ki(calpain) ratio” value was “++ (++ means a Ki(cathepsin S)/Ki(calpain) ratio of ≧100)”.
In the case of `CCCCC(NC(=O)c1cccnc1-n1ccc(-c2ccc(CN(CC)CC)cc2)n1)C(=O)C(N)=O` (stereo not shown) [Example 44, N-{1-[Amino(oxo)acetyl]pentyl}-2-(3-{4-[(diethylamino)methyl]phenyl}-1H-pyrazol-1-yl)nicotinamide], the “Sel cat. S: Ki(cathepsin S)/Ki(calpain) ratio” value is reported as “+ (+ means 50≦Ki(cathepsin S)/Ki(calpain)<100)”.
With `Cl.NC(=O)C(=O)C(Cc1ccccc1)NC(=O)c1cccnc1-n1ccc(-c2cccc(CN3CCOCC3)c2)n1` (stereo not shown) [Example 52, N-(3-Amino-1-benzyl-2,3-dioxopropyl)-2-{3-[3-(morpholin-4-ylmethyl)phenyl]-1H-pyrazol-1-yl}nicotinamide hydrochloride] the “Sel cat. S: Ki(cathepsin S)/Ki(calpain) ratio” value was “++ (++ means a Ki(cathepsin S)/Ki(calpain) ratio of ≧100)”.
`NC(=O)C(=O)C(Cc1ccccc1)NC(=O)c1cccnc1-n1cc(CN2CCOCC2)c(-c2cccc(C(F)(F)F)c2)n1` (stereo not shown) [Example 177, N-[3-Amino-2,3-dioxo-1-(phenylmethyl)propyl]-2-{4-(morpholin-4-ylmethyl)-3-[3-(trifluoromethyl)phenyl]-1H-pyrazol-1-yl}pyridine-3-carboxamide] was tested, and the “Sel cat. S: Ki(cathepsin S)/Ki(calpain) ratio” value was “++ (++ means a Ki(cathepsin S)/Ki(calpain) ratio of ≧100)”.
For `NC(=O)C(=O)C(Cc1ccccc1)NC(=O)c1cccnc1-n1cnc(-c2ccc(N3CCOCC3)cc2)c1` (stereo not shown) [Example 14, N-(3-Amino-1-benzyl-2,3-dioxopropyl)-2-[4-(4-morpholin-4-ylphenyl)-1H-imidazol-1-yl]nicotinamide], the “Sel cat. S: Ki(cathepsin S)/Ki(calpain) ratio” value was “++ (++ means a Ki(cathepsin S)/Ki(calpain) ratio of ≧100)”.
`CCN(CC)Cc1ccc(-c2ccn(-c3ncccc3C(=O)NC(Cc3ccccc3)C(=O)C(N)=O)n2)cc1.Cl` (stereo not shown) [Example 43, N-(3-Amino-1-benzyl-2,3-dioxopropyl)-2-(3-{4-[(diethylamino)methyl]phenyl}-1H-pyrazol-1-yl)nicotinamide hydrochloride] was tested, and the “Sel cat. S: Ki(cathepsin S)/Ki(calpain) ratio” value was “++ (++ means a Ki(cathepsin S)/Ki(calpain) ratio of ≧100)”.
